Measured values: ChEMBL document CHEMBL4483862, “Open-source discovery of chemical leads for next-generation chemoprotective antimalarials” (2018)

System: Plasmodium berghei
Assay: Luciferase/luciferin-expressing antifolate-resistant parasites were used to infect a culture of HepG2 cells that were pre-incubated with compounds. Infected hepatocytes emit light due to the luciferase reaction. Assay results are presented as the percent inhibition of light emission compared to control. […]
Format: functional
Conditions: sporozoite; for IC90: read-out: LUCIFERASE INFECTION ASSAY - IC90

SMILES	IC90	also measured
COCCCNC1=NN=C(c2cc(C)n(-c3ccccc3F)c2C)CS1	9.7 µM	IC50 (HEPG2TOX_HILL_SLOPE 3.65, HEPG2TOX_R_SQUARED 0.669, PBLUC_HILL_SLOPE 1.05, PBLUC_R_SQUARED 0.653, read-out: LUCIFERASE INFECTION ASSAY - IC50): 1.2 µM
COc1cc(/C=C2\COC/C(=C\c3ccc(O)c(OC)c3)C2=O)ccc1O	> 8.96 µM	IC50 (HEPG2TOX_HILL_SLOPE 3.66, HEPG2TOX_R_SQUARED 0.976, PBLUC_HILL_SLOPE 1.71, PBLUC_R_SQUARED 0.466, read-out: LUCIFERASE INFECTION ASSAY - IC50): > 8.96 µM
O=C(c1cnc2ccc3ccccc3c2c1)c1cc(F)ccc1O	> 10 µM	IC50 (HEPG2TOX_HILL_SLOPE 3.61, HEPG2TOX_R_SQUARED 0.979, PBLUC_HILL_SLOPE 3.48, PBLUC_R_SQUARED 0.782, read-out: LUCIFERASE INFECTION ASSAY - IC50): 5.41 µM
CCc1ccc(NC(=O)C[n+]2c3n(c4c(F)c(F)ccc42)CCCCC3)cc1	9.39 µM	IC50 (HEPG2TOX_HILL_SLOPE 3.71, HEPG2TOX_R_SQUARED 0.507, PBLUC_HILL_SLOPE 2.96, PBLUC_R_SQUARED 0.697, read-out: LUCIFERASE INFECTION ASSAY - IC50): 4.47 µM
CN1/C(=C\C(=O)C[n+]2cccc(Br)c2)C(C)(C)c2ccccc21	> 10 µM	IC50 (HEPG2TOX_HILL_SLOPE 3.72, HEPG2TOX_R_SQUARED 0.897, PBLUC_HILL_SLOPE 2.59, PBLUC_R_SQUARED 0.674, read-out: LUCIFERASE INFECTION ASSAY - IC50): 4.52 µM
CC(C(=O)Nc1cccnc1)c1ccc2c(c1)[nH]c1ccc(Cl)cc12 (configuration not stated)	> 9.43 µM	IC50 (HEPG2TOX_HILL_SLOPE 3.6, HEPG2TOX_R_SQUARED 0.842, PBLUC_HILL_SLOPE 14.2, PBLUC_R_SQUARED 0.432, read-out: LUCIFERASE INFECTION ASSAY - IC50): 8.79 µM
O=C(Nc1nonc1-c1cccs1)c1sc2ccccc2c1Cl	3.36 µM	IC50 (HEPG2TOX_HILL_SLOPE 3.76, HEPG2TOX_R_SQUARED 0.735, PBLUC_HILL_SLOPE 21.7, PBLUC_R_SQUARED 0.795, read-out: LUCIFERASE INFECTION ASSAY - IC50): 3.04 µM
COc1ccc(-c2cnc3cnc(-c4ccc(O)cc4)cn23)cc1	> 10.4 µM	IC50 (HEPG2TOX_HILL_SLOPE 3.68, HEPG2TOX_R_SQUARED 0.904, PBLUC_HILL_SLOPE 3.01, PBLUC_R_SQUARED 0.439, read-out: LUCIFERASE INFECTION ASSAY - IC50): 5.92 µM
O=C(NCc1cn(-c2ccccc2)nc1-c1ccc(Cl)s1)c1ccccc1C(F)(F)F	> 10 µM	IC50 (HEPG2TOX_HILL_SLOPE 3.63, HEPG2TOX_R_SQUARED 0.948, PBLUC_HILL_SLOPE 1.32, PBLUC_R_SQUARED 0.654, read-out: LUCIFERASE INFECTION ASSAY - IC50): 2.44 µM
O=C(Nc1cc(C(F)(F)F)cc(C(F)(F)F)c1)Nc1sccc1Cl	2.93 µM	IC50 (HEPG2TOX_HILL_SLOPE 3.73, HEPG2TOX_R_SQUARED 0.682, PBLUC_HILL_SLOPE 3.61, PBLUC_R_SQUARED 0.656, read-out: LUCIFERASE INFECTION ASSAY - IC50): 1.59 µM
O=S(=O)(Nc1cc(-c2ccc(Cl)cc2)nn1-c1ccc(I)cc1)c1cccc(F)c1	2.83 µM	IC50 (HEPG2TOX_HILL_SLOPE 3.73, HEPG2TOX_R_SQUARED 0.889, PBLUC_HILL_SLOPE 8.27, PBLUC_R_SQUARED 0.455, read-out: LUCIFERASE INFECTION ASSAY - IC50): 2.17 µM
CN(C)c1ccc(C(c2ccc(OC(F)F)cc2)c2ccc(N(C)C)cc2)cc1	6.27 µM	IC50 (HEPG2TOX_HILL_SLOPE 3.6, HEPG2TOX_R_SQUARED 0.971, PBLUC_HILL_SLOPE 3.21, PBLUC_R_SQUARED 0.781, read-out: LUCIFERASE INFECTION ASSAY - IC50): 3.16 µM
O=C(/C=C/c1cc([N+](=O)[O-])ccc1Cl)c1ccc(N2CCOCC2)c(F)c1	> 10 µM	IC50 (HEPG2TOX_HILL_SLOPE 3.72, HEPG2TOX_R_SQUARED 0.763, PBLUC_HILL_SLOPE 12.8, PBLUC_R_SQUARED 0.291, read-out: LUCIFERASE INFECTION ASSAY - IC50): 8.87 µM
NC(=O)c1cccc(-c2ccc3ncc(-c4cccnc4)n3n2)c1	5.41 µM	IC50 (HEPG2TOX_HILL_SLOPE 3.58, HEPG2TOX_R_SQUARED 0.988, PBLUC_HILL_SLOPE 1.15, PBLUC_R_SQUARED 0.587, read-out: LUCIFERASE INFECTION ASSAY - IC50): 0.804 µM
CN(c1ccccc1)c1ccc(CN2CCC3(CC2)C(=O)N(CCc2ccccc2)C(=O)N3C)cc1	3.1 µM	IC50 (HEPG2TOX_HILL_SLOPE 3.73, HEPG2TOX_R_SQUARED 0.979, PBLUC_HILL_SLOPE 9.4, PBLUC_R_SQUARED 0.597, read-out: LUCIFERASE INFECTION ASSAY - IC50): 2.46 µM
CCOC(=O)c1c(S(=O)(=O)Nc2ccc(OC(F)(F)F)cc2)c(-c2ccccc2)n(-c2ccccc2)c1C	> 6.06 µM	IC50 (HEPG2TOX_HILL_SLOPE 3.6, HEPG2TOX_R_SQUARED 0.938, PBLUC_HILL_SLOPE 3.83, PBLUC_R_SQUARED 0.0999, read-out: LUCIFERASE INFECTION ASSAY - IC50): 3.44 µM

SMILES	IC90	also measured
Fc1cccc(-c2cnc3cnc(-c4ccncc4)cn23)c1	> 11.4 µM	IC50 (HEPG2TOX_HILL_SLOPE 3.65, HEPG2TOX_R_SQUARED 0.679, PBLUC_HILL_SLOPE 2.42, PBLUC_R_SQUARED 0.708, read-out: LUCIFERASE INFECTION ASSAY - IC50): 5.64 µM
COc1cccc(CN2CCN3C=C(C(=O)Nc4ccc(C(C)C)cc4)OC3=NC2=O)c1	9.3 µM	IC50 (HEPG2TOX_HILL_SLOPE 3.72, HEPG2TOX_R_SQUARED 0.984, PBLUC_HILL_SLOPE 3.98, PBLUC_R_SQUARED 0.662, read-out: LUCIFERASE INFECTION ASSAY - IC50): 5.35 µM
COc1ncccc1C(=O)NNC(=O)c1nc(-c2ccccc2)n(-c2ccccc2)n1	3.43 µM	IC50 (HEPG2TOX_HILL_SLOPE 3.74, HEPG2TOX_R_SQUARED 0.853, PBLUC_HILL_SLOPE 83.7, PBLUC_R_SQUARED 0.266, read-out: LUCIFERASE INFECTION ASSAY - IC50): 3.34 µM
Cc1[nH]c2ccccc2c1C(=O)NCC1(c2ccccc2)CCC1	> 10 µM	IC50 (HEPG2TOX_HILL_SLOPE 3.6, HEPG2TOX_R_SQUARED 0.416, PBLUC_HILL_SLOPE 3.04, PBLUC_R_SQUARED 0.598, read-out: LUCIFERASE INFECTION ASSAY - IC50): 7.33 µM
CCOc1cc2cc(C(=O)c3cc(C)ccc3O)cnc2cc1OC	9.38 µM	IC50 (HEPG2TOX_HILL_SLOPE 3.65, HEPG2TOX_R_SQUARED 0.956, PBLUC_HILL_SLOPE 5.3, PBLUC_R_SQUARED 0.515, read-out: LUCIFERASE INFECTION ASSAY - IC50): 6.19 µM
COC(=O)c1cc(C#N)c(S(C)(=O)=O)s1	> 13.5 µM	IC50 (HEPG2TOX_HILL_SLOPE 3.75, HEPG2TOX_R_SQUARED 0.937, PBLUC_HILL_SLOPE 11, PBLUC_R_SQUARED 0.132, read-out: LUCIFERASE INFECTION ASSAY - IC50): 12.1 µM
O=C(NC1CCN(Cc2ccccc2)CC1)N1CCN(Cc2ccc(Br)s2)CC1	4.35 µM	IC50 (HEPG2TOX_HILL_SLOPE 3.62, HEPG2TOX_R_SQUARED 0.356, PBLUC_HILL_SLOPE 12.1, PBLUC_R_SQUARED 0.388, read-out: LUCIFERASE INFECTION ASSAY - IC50): 3.62 µM
O=C(N/N=C/c1cc(Br)ccc1O)c1ccccc1Oc1ccccc1	7.69 µM	IC50 (HEPG2TOX_HILL_SLOPE 3.72, HEPG2TOX_R_SQUARED 0.537, PBLUC_HILL_SLOPE 21.6, PBLUC_R_SQUARED 0.145, read-out: LUCIFERASE INFECTION ASSAY - IC50): 6.95 µM
CCCNC(=O)c1c(NC(=O)c2cccc(C#N)c2)nc2ccc(C)cn12	> 9.13 µM	IC50 (HEPG2TOX_HILL_SLOPE 3.59, HEPG2TOX_R_SQUARED 0.259, PBLUC_HILL_SLOPE 11, PBLUC_R_SQUARED 0.773, read-out: LUCIFERASE INFECTION ASSAY - IC50): 8.46 µM
CC(C)(C)c1ccc(CSCCNC2=CC(=O)CC(c3ccc4c(c3)OCO4)C2)cc1 (configuration not stated)	> 7.54 µM	IC50 (HEPG2TOX_HILL_SLOPE 3.72, HEPG2TOX_R_SQUARED 0.93, PBLUC_HILL_SLOPE 2.67, PBLUC_R_SQUARED 0.216, read-out: LUCIFERASE INFECTION ASSAY - IC50): 3.87 µM
O=C(Nc1cccc(S(=O)(=O)NC2CC2)c1)c1cc(-c2ccccc2)nn1-c1ccccc1	> 10 µM	IC50 (HEPG2TOX_HILL_SLOPE 3.71, HEPG2TOX_R_SQUARED 0.26, read-out: LUCIFERASE INFECTION ASSAY - IC50): > 10 µM
COc1ccc(CN2C(=O)N(C)C3(CCN(Cc4ccc(N(C)c5ccccc5)cc4)CC3)C2=O)cc1	3.8 µM	IC50 (HEPG2TOX_HILL_SLOPE 3.68, HEPG2TOX_R_SQUARED 0.977, PBLUC_HILL_SLOPE 4.63, PBLUC_R_SQUARED 0.726, read-out: LUCIFERASE INFECTION ASSAY - IC50): 2.36 µM
C=CCOc1ccccc1C(=O)Nc1nc2c(s1)CN(C(=O)OC(C)(C)C)CC2	4.73 µM	IC50 (HEPG2TOX_HILL_SLOPE 3.68, HEPG2TOX_R_SQUARED 0.942, PBLUC_HILL_SLOPE 10.6, PBLUC_R_SQUARED 0.381, read-out: LUCIFERASE INFECTION ASSAY - IC50): 3.84 µM
Cc1cccc2nc(CSC(=S)NCc3cccnc3)cn12	> 10 µM	IC50 (HEPG2TOX_HILL_SLOPE 3.71, HEPG2TOX_R_SQUARED 0.958, PBLUC_HILL_SLOPE 13, PBLUC_R_SQUARED 0.345, read-out: LUCIFERASE INFECTION ASSAY - IC50): 9.61 µM
Cc1nnnn1/C(=C\c1cccc(F)c1)C(=O)NC(C)c1cc2ccccc2o1 (configuration not stated)	4.08 µM	IC50 (HEPG2TOX_HILL_SLOPE 3.7, HEPG2TOX_R_SQUARED 0.887, PBLUC_HILL_SLOPE 12.4, PBLUC_R_SQUARED 0.779, read-out: LUCIFERASE INFECTION ASSAY - IC50): 3.42 µM
